Values joined by “and” are separate entries in the source; they are usually repeats but may differ in a detail not shown here. Equal values may be shown once. “Also recorded” adds a separate entry of the source.
Key:
Candida albicans [1] = test: Antifungal (growth inhibition) activity against C. albicans; assay type: cell-based; conditions: for inhibitory growth effect / antimicrobial activity against C. albicans: FIG. 3 (C), ** p<0.05
Text: The inventors analyzed the antimicrobial activity of peptide fragments corresponding to ppGAL against gram-negative E. coli gram-positive Staphylococcus aureus and Corynebacterium sp. and the yeast Candida albicans and Aspergillus fumigatus. Positive controls were the antimicrobial peptides Indolicidin, NPY 13-36 and Magainin I, as a negative control served the Adrenocorticotropic hormone (ACTH) 18-39 (Cutuli M, Cristiani S, Lipton J M and Catania A: Antimicrobial effects of alpha-MSH peptides. J Leukoc Biol 67:233-239, 2000; Selsted M E, Novotny M J, Morris W L, Tang Y Q, Smith W and Cullor J S: Indolicidin, a novel bactericidal tridecapeptide amide from neutrophils. J Biol Chem. 267:4292-4295., 1992; Shimizu M, Shigeri Y, Tatsu Y, Yoshikawa S and Yumoto N: Enhancement of antimicrobial activity of neuropeptide Y by N-terminal truncation. Antimicrob Agents Chemother 42:2745-2746, 1998; Zasloff M: Magainins, a class of antimicrobial peptides from Xenopus skin: isolation, characterization of two active forms, and partial cDNA sequence of a precursor. Proc Natl Acad Sci USA 84:5449-5453, 1987).
None of the peptide fragments tested of the ppGal gene did reveal antibacterial activity. […] The antifungal activity can be found already at a concentration of […] (4 μM).

Candida albicans [2] = test: Microscopic examination of treated Candida albicans cultures for hyphae (yeast-to-hypha switch); assay type: cell-based
Experimental: Cultures of Candida albicans were treated for 24 and 48 hrs either with the common antifungal substance fluconazol, GMAP 16-42 or Galanin.

[3] = interpretation of microscopy findings

## ELRPEDDMKPGSFDRSIPENNIMRTIIEFLSFLHLKEAGAL (listed as Homo sapiens) [GMAP 1-41]
Candida albicans [1]
  inhibitory growth effect / antimicrobial activity against C. albicans: active compound

## GMAP: galanin message associated peptide; in b114 refers to the GMAP fragment treated wells (ELRPEDDMKPGSFDRSIPENNIMRTIIEFLSFLHLKEAGAL; listed as Homo sapiens)
Candida albicans [2]; [3]
  effect on proliferation of Candida per se: not to significantly affect the proliferation of Candida per se
  effect on switch to pathogenic hyphal forms: inhibits the switch to pathogenic hyphal forms; also recorded: inhibits the pathogenic phenotypic switch of C. albicans

## SIPENNIMRTIIEFLSFLHLKEAGAL (listed as Homo sapiens) [GMAP 16-41]
Candida albicans [1]; C. albicans
  concentration at which antifungal activity can be found: 12 pg/ml and 4 μM
Candida albicans [1]
  inhibitory growth effect / antimicrobial activity against C. albicans: antimicrobial core sequence

## OC(Cn1cncn1)(Cn1cncn1)c1ccc(F)cc1F [fluconazol, reference compound]
Candida albicans [2]; treated for 24 and 48 hrs
  microscopic examination of cultures: hyphae / yeast forms: hyphae were only visible in the untreated and galanin treated wells
Candida albicans [2]; treated for 48 hrs (FIG. 4)
  microscopic examination of cultures: hyphae / yeast forms: hyphae were only visible in the untreated and galanin treated wells

Source: US20090317395A1, “Antimicrobial Peptide Derived from Galanin Message Associated Peptide (GMAP)” (priority 2006, published 2009)
